Experimental data reported in patent US6900219B2, “ABCA-1 elevating compounds” (CV Therapeutics, Inc., priority 2002, dated 2005).

Each compound was assayed on ABCA-1 gene (assay: compounds tested and found to elevate cellular expression of the ABCA-1 gene (Examples 1-6; test not named)).
Format: cell-based
Experimental: Activity testing is conducted as described in those patents and patent applications referenced above, and in the Examples below, and by methods apparent to one skilled in the art.

| Structure (SMILES) | cellular expression of the ABCA-1 gene |
| --- | --- |
| COc1cccc(NC(=O)N(CCN(C)C)C(C)c2nc3ccccc3c(=O)n2-c2ccc3ccccc3c2)c1 (stereo not shown) [N-[2-(dimethylamino)ethyl][(3-methoxyphenyl)amino]-N-[(3-(2-naphthyl)-4-oxo(3-hydroquinazolin-2-yl))ethyl]carboxamide] | elevate cellular expression of the ABCA-1 gene |
| O=C(Nc1nc(-c2ccc(Cl)cc2)cs1)c1ccc(-c2ccccc2)cc1 [N-[4-(4-chlorophenyl)(1,3-thiazol-2-yl)](4-phenylphenyl)carboxamide] | elevate cellular expression of the ABCA-1 gene |
| O=C(Nc1nc(-c2ccc(Cl)cc2)cs1)c1ccc(C(F)(F)F)cc1F [N-[4-(4-chlorophenyl)(1,3-thiazol-2-yl)][2-fluoro-4-(trifluoromethyl)phenyl]-carboxamide] | elevate cellular expression of the ABCA-1 gene |
| O=C(Nc1nc(-c2ccc(Cl)cc2)cs1)c1cccc(C(F)(F)F)c1 [N-[4-(4-chlorophenyl)(1,3-thiazol-2-yl)][3-(trifluoromethyl)phenyl]carboxamide] | elevate cellular expression of the ABCA-1 gene |
| O=C(Nc1nc(-c2ccc(Cl)cc2)cs1)c1ccc(OC(F)(F)F)cc1 [N-[4-(4-chlorophenyl)(1,3-thiazol-2-yl)][4-(trifluoromethoxy)phenyl]carboxamide] | elevate cellular expression of the ABCA-1 gene |
| O=C(Nc1nc(-c2ccc(Cl)cc2)cs1)C1CCCC1 [N-[4-(4-chlorophenyl)(1,3-thiazol-2-yl)]cyclopentylcarboxamide] | elevate cellular expression of the ABCA-1 gene |
| Cc1cc(C)c2oc(-c3ccc(NC(=O)c4ccccc4Br)cc3)nc2c1 [N-[4-(5,7-dimethylbenzoxazol-2-yl)phenyl](2-bromophenyl)carboxamide] | elevate cellular expression of the ABCA-1 gene |
| Cc1ccc2nc(-c3ccc(NC(=O)c4ccccc4C)cc3)sc2c1 [N-[4-(6-methylbenzothiazol-2-yl)phenyl](2-methylphenyl)carboxamide] | elevate cellular expression of the ABCA-1 gene |
| Cc1ccc2nc(-c3ccc(NC(=O)Cc4cccs4)cc3)sc2c1 [N-[4-(6-methylbenzothiazol-2-yl)phenyl]-2-(2-thienyl)acetamide] | elevate cellular expression of the ABCA-1 gene |
| CCN(CC)CCCC(C)NC(=O)c1cnn(-c2nc(-c3cccc(OC)c3)cs2)c1C (stereo not shown) [N-[4-(diethylamino)-1-methylbutyl]{1-[4-(3-methoxyphenyl)(1,3-thiazol-2-yl)]-5-methylpyrazol-4-yl}carboxamide] | elevate cellular expression of the ABCA-1 gene |
| CCc1c(C(=O)NC(C)CCCN(CC)CC)cnn1-c1nc(-c2ccc(Br)cc2)cs1 (stereo not shown) [N-[4-(diethylamino)-1-methylbutyl]{1-[4-(4-bromophenyl)(1,3-thiazol-2-yl)]-5-ethylpyrazol-4-yl}carboxamide] | elevate cellular expression of the ABCA-1 gene |
| CC(=O)Nc1ccc(N=Nc2ccccc2)cc1 [N-[4-(phenyldiazenyl)phenyl]acetamide] | elevate cellular expression of the ABCA-1 gene |
| O=C(Nc1ncc(-c2ccccc2Cl)s1)c1ccco1 [N-[5-(2-chlorophenyl)(1,3-thiazol-2-yl)]-2-furylcarboxamide] | elevate cellular expression of the ABCA-1 gene |
| O=C(Nc1ncc(-c2ccccc2Cl)s1)C1CC1 [N-[5-(2-chlorophenyl)(1,3-thiazol-2-yl)]cyclopropylcarboxamide] | elevate cellular expression of the ABCA-1 gene |
| O=C(Nc1ncc(-c2ccc(F)cc2)s1)c1ccco1 [N-[5-(4-fluorophenyl)(1,3-thiazol-2-yl)]-2-furylcarboxamide] | elevate cellular expression of the ABCA-1 gene |
| O=C(Nc1ncc(-c2ccc(F)cc2)s1)c1cccs1 [N-[5-(4-fluorophenyl)(1,3-thiazol-2-yl)]-2-thienylcarboxamide] | elevate cellular expression of the ABCA-1 gene |

| Structure (SMILES) | cellular expression of the ABCA-1 gene |
| --- | --- |
| CC(C)(C)c1cc(NC(=O)C(C)(C)S(=O)(=O)c2ccc(C(F)(F)F)cc2)no1 [N-[5-(tert-butyl)isoxazol-3-yl]-2-methyl-2-{[4-(trifluoromethyl)phenyl]sulfonyl}-propanamide] | elevate cellular expression of the ABCA-1 gene |
| CS(=O)(=O)c1ccc2nc(NC(=O)c3cccs3)sc2c1 [N-[6-(methylsulfonyl)benzothiazol-2-yl]-2-thienylcarboxamide] | elevate cellular expression of the ABCA-1 gene |
| CCc1c(C(=O)NC23CC4CC(CC(C4)C2)C3)cnn1-c1nc(-c2ccc(C)cc2)cs1 [N-adamantanyl {5-ethyl-1-[4-(4-methylphenyl)(1,3-thiazol-2-yl)]pyrazol-4-yl}carboxamide] | elevate cellular expression of the ABCA-1 gene |
| O=C(Nc1nc2ccccc2s1)c1sc2ccccc2c1Cl [N-benzothiazol-2-yl(3-chlorobenzo[b]thiophen-2-yl)carboxamide] | elevate cellular expression of the ABCA-1 gene |
| N#Cc1cccc(C(=O)Nc2nc3ccccc3s2)c1 [N-benzothiazol-2-yl(3-cyanophenyl)carboxamide] | elevate cellular expression of the ABCA-1 gene |
| O=C(Nc1nc2ccccc2s1)c1cccc(F)c1 [N-benzothiazol-2-yl(3-fluorophenyl)carboxamide] | elevate cellular expression of the ABCA-1 gene |
| N#Cc1ccc(C(=O)Nc2nc3ccccc3s2)cc1 [N-benzothiazol-2-yl(4-cyanophenyl)carboxamide] | elevate cellular expression of the ABCA-1 gene |
| CCCCNC(=O)Nc1nc2ccccc2s1 [N-benzothiazol-2-yl(butylamino)carboxamide] | elevate cellular expression of the ABCA-1 gene |
| CCCNC(=O)Nc1nc2ccccc2s1 [N-benzothiazol-2-yl(propylamino)carboxamide] | elevate cellular expression of the ABCA-1 gene |
| CC(C)(C)NC(=O)Nc1nc2ccccc2s1 [N-benzothiazol-2-yl(tert-butylamino)carboxamide] | elevate cellular expression of the ABCA-1 gene |
| O=C(Cc1cccs1)Nc1nc2ccccc2s1 [N-benzothiazol-2-yl-2-(2-thienyl)acetamide] | elevate cellular expression of the ABCA-1 gene |
| N#Cc1c(C(F)(F)F)cc(-c2cccs2)nc1SCC(=O)Nc1nc2ccccc2s1 [N-benzothiazol-2-yl-2-[3-cyano-6-(2-thienyl)-4-(trifluoromethyl)(2-pyridylthio)]acetamide] | elevate cellular expression of the ABCA-1 gene |
| O=C(Nc1nc2ccccc2s1)c1ccco1 [N-benzothiazol-2-yl-2-furylcarboxamide] | elevate cellular expression of the ABCA-1 gene |
| O=C(Nc1nc2ccccc2s1)c1ccccn1 [N-benzothiazol-2-yl-2-pyridylcarboxamide] | elevate cellular expression of the ABCA-1 gene |
| O=C(Nc1nc2ccccc2s1)c1cccs1 [N-benzothiazol-2-yl-2-thienylcarboxamide] | elevate cellular expression of the ABCA-1 gene |
